Measured values as given in ChEMBL document CHEMBL4340509, “Synthesis and evaluation of novel GSK-3β inhibitors as multifunctional agents against Alzheimer's disease” (Eur J Med Chem, 2019).
Activity calls are given as the source filed them. The calls are words filed in the database; no cut-off is given here.

Key:
[1] = biological target: T1, Glycogen synthase kinase-3 beta (Homo sapiens, UniProt P49841); test: Inhibition of GSK3bbeta in human SH-SY5Y cells assessed as reduction in human amyloid beta (25 to 35) peptide-induced tau hyperphosphorylation at Ser396 residue preincubated for 1 hr followed by amyloid beta-stimulation and measured after 6 hrs by Western blot analysis; format: cell-based
Target sequence in this assay (P49841 whole entry, looked up): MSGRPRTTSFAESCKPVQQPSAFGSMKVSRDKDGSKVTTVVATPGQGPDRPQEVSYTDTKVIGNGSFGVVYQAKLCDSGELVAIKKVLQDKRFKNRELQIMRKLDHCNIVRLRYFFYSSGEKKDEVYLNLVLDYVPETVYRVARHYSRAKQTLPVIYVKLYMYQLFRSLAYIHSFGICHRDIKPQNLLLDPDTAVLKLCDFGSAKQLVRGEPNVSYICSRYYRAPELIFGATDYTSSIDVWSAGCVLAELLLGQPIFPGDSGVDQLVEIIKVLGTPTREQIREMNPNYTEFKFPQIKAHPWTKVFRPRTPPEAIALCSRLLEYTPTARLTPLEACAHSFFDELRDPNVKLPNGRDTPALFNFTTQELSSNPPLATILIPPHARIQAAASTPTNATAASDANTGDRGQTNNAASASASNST

[2] = Antioxidant activity assessed as ABTS radical scavenging activity incubated for 6 mins; format: functional
[3] = Disaggregation of Cu2+ induced human HFIP-pretreated amyloid beta (1 to 42) preformed fibrils at 40 uM measured after 24 hrs by ThT-based fluorescence assay relative to control
[4] = biological target: Amyloid-beta precursor protein (Homo sapiens) (UniProt P05067); test: Inhibition of human HFIP-pretreated amyloid beta (1 to 42) self aggregation at 40 uM after 24 hrs by ThT-based fluorometric method relative to control
[5] = Metal chelating activity assessed as K+-compound complex formation at 20 uM in the presence of KCl after 30 mins by UV-vis spectrophotometric analysis
[6] = Metal chelating activity assessed as Na+-compound complex formation at 20 uM in the presence of NaCl after 30 mins by UV-vis spectrophotometric analysis
[7] = Metal chelating activity assessed as compound-Cu2+ complex formation by measuring blue shift in maximum absorption at 20 uM in presence of CuCl2 after 30 mins by UV-visible spectrophotometric analysis (reference value: 248 nanometer)
[8] = system: SH-SY5Y; test: Neuroprotective activity against H2O2-induced oxidative damage in human SH-SY5Y cells assessed as increase in cell viability measured after 24 hrs by MTT assay; format: functional, cell-based
[9] = system: PC-12; test: Cytotoxicity against rat PC12 cells measured after 24 hrs by MTT assay; format: cell-based; details: PC-12, 24 h
[10] = system: SH-SY5Y; test: Cytotoxicity against human SH-SY5Y cells measured after 24 hrs by MTT assay; format: cell-based
[11] = system: SH-SY5Y; test: Neuroprotective activity against amyloid beta (1 to 42) (unknown origin)-induced cytotoxicity in SH-SY5Y cells assessed as cell viability at 2 uM measured after 24 hrs by MTT assay (reference value: 78%); format: functional; details: Homo sapiens
[12] = Metal chelating activity assessed as compound-Ca2+ complex formation at 20 uM in the presence of CaCl2 after 30 mins by UV-visible spectrophotometric analysis
[13] = biological target: T1, Glycogen synthase kinase-3 beta; test: Inhibition of GSK3bbeta in human SH-SY5Y cells assessed as reduction in human amyloid beta (25 to 35) peptide-induced tau hyperphosphorylation at Ser396 residue at 25 uM preincubated for 1 hr followed by amyloid beta-stimulation and measured after 6 hrs by Western blot analysis relative to control; format: cell-based
Target sequence in this assay (P49841 whole entry, looked up): as above

[14] = Metal chelating activity assessed as inhibition of Cu(II)/ascorbate-induced ROS production by measuring fluorescence intensity at 100 uM measured at 20 secs interval for 1000 secs by fluorescence assay (reference value: 10 to 52)
[15] = Inhibition of Cu2+-induced HFIP pretreated human amyloid beta (1 to 42) aggregation at 40 uM measured after 24 hrs by ThT-based fluorescence assay relative to control
[16] = Metal chelating activity assessed as compound-Al3+ complex formation by measuring blue shift in maximum absorption at 20 uM in the presence of AlCl3 after 30 mins by UV-visible spectrophotometric analysis (reference value: 248 to 407 nanometer)
[17] = system: PC-12; test: Neuroprotective activity against H2O2-induced oxidative damage in rat PC12 cells assessed as cell viability at 10 uM measured after 24 hrs by MTT assay relative to control; format: functional; details: PC-12, 24 h, read-out: Activity
[18] = biological target: Amyloid-beta precursor protein (Homo sapiens) (UniProt P05067); test: Disaggregation of HFIP-pretreated human amyloid beta (1 to 42) preformed fibrils at 40 uM after 24 hrs by ThT-based fluorometric method relative to control
[19] = Metal chelating activity assessed as compound-Zn2+ complex formation at 20 uM in presence of ZnCl2 after 30 mins by UV-visible spectrophotometric analysis
[20] = Potency index, ratio of test compound effect to clioquinol effect for disaggregation of Cu2+ induced human HFIP-pretreated amyloid beta (1 to 42) preformed fibrils
[21] = system: SH-SY5Y; test: Cytotoxicity against human SH-SY5Y cells at 2 uM in the presence of CuCl2 measured after 24 hrs by MTT assay; format: cell-based
[22] = system: SH-SY5Y; test: Neuroprotective activity against Cu2+-mediated amyloid beta (1 to 42) (unknown origin)-induced cytotoxicity in human SH-SY5Y cells assessed as cell viability at 2 uM measured after 24 hrs by MTT assay (reference value: 71%); format: functional; details: read-out: Activity
[23] = Metal chelating activity assessed as compound-Mg2+ complex formation at 20 uM in the presence of MgCl2 after 30 mins by UV-visible spectrophotometric analysis
[24] = Metal chelating activity assessed as compound-Fe2+ complex formation at 20 uM in the presence of FeSO4 after 30 mins by UV-visible spectrophotometric analysis
[25] = system: SH-SY5Y; test: Neuroprotective activity against H2O2-induced oxidative damage in human SH-SY5Y cells assessed as cell viability at 10 uM measured after 24 hrs by MTT assay relative to control; format: functional; details: read-out: Activity
[26] = biological target: T1, Glycogen synthase kinase-3 beta; test: Inhibition of GSK-3beta (unknown origin) using FAM-labeled peptide as substrate preincubated for 10 mins followed by substrate addition by caliper assay
Target sequence in this assay (P49841 whole entry): as the sequence (P49841 whole entry, looked up) above

[27] = Potency index, ratio of trolox IC50 to test compound IC50 for ABTS radical scavenging activity; format: functional

Sequence of Amyloid-beta precursor protein (Homo sapiens) (P05067 whole entry): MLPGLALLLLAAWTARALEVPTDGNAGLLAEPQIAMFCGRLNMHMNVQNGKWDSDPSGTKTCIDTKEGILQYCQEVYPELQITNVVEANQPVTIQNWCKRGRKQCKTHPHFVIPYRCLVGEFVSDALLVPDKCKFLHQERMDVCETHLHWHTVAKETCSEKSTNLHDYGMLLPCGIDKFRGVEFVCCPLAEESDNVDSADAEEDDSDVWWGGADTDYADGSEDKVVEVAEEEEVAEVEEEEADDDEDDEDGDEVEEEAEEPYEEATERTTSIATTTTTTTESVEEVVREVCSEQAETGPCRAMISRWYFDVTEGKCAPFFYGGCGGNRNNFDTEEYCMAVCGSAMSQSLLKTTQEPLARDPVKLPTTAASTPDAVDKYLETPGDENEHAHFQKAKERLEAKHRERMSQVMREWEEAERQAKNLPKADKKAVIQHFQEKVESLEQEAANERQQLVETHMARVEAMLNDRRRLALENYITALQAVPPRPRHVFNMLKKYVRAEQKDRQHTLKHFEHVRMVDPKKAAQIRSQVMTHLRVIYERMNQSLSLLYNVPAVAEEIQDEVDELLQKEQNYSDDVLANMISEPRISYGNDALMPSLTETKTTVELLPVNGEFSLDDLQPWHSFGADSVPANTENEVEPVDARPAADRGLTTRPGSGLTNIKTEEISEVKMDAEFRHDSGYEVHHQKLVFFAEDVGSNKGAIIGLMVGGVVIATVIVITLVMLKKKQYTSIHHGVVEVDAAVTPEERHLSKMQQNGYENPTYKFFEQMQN

SMILES: Nc1ncc(-c2ccccc2)cc1/N=C/c1ccnc(NC(=O)C2CC2)c1
- inhibition [1]: Dose-dependent effect
- IC50 [2]: 7.3 µM
- Activity [3]: 66.1%
- inhibition [4]: inactive
- Activity [5]: inactive
- Activity [6]: inactive
- Activity [7]: 244 nm
- Activity [8]: Dose-dependent effect
- IC50 [9]: 83.2 µM
- IC50 [10]: 158 µM
- Activity [11]: inactive
- Activity [12]: inactive
- inhibition [13]: < 50%
- Flu intensity [14]: 53 to 68
- inhibition [15]: 63%
- Activity [16]: 242 to 339 nm
- viability at 10 µM [17]: 71.8%
- Activity [18]: inactive
- Activity [19]: inactive
- Ratio [20]: 2
- Activity [21]: Non-Toxic
- viability at 2 µM [22]: 93%
- Activity [23]: inactive
- Activity [24]: inactive
- viability at 10 µM [25]: 92.7%
- IC50 [26]: 0.049 µM
- Ratio IC50 [27]: 2 to 4
